“And” between values parts separate entries of the source, which are not always exact repeats. Equal values may be shown once. “Also recorded” adds a separate entry of the source.
How the values were obtained:
Neutral Lipid in Liver = experiment: Inhibiting action for accumulation of neutral lipid in liver (ethanol-loaded rats); format: in vivo, Sprague Dawley strain male rats
Method: Inhibiting Action for Accumulation of Neutral Lipid in Liver
The Sprague Dawley strain male rats weighing 180±30 g which had been fed rat food commercially available as CLEA CE-2 and prevented from eating food for 16 hours just before the experiment was started were divided into groups of 10 rats each. Each rat was orally administered with disodium uridine-5'-diphosphate (UDP-2Na) as a suspension in corn oil in a dose of 100 mg/kg body weight. Thirty minutes after the administration, each rat was orally administered with ethanol as a 50% aqueous solution in a dose of 6 g/kg. body weight and, 24 hours after the administration, the liver was taken out and an amount of neutral lipid contained therein was determined by the Van Handel and Zilver-Smit method. For control, a glucose aqueous solution having a caloric content equivalent to the same amount of ethanol was used instead of ethanol.

[1] = tested on: rat (behaviour after ethanol); experiment: Behaviour and righting reflex of rats, UDP-2Na given 30 min before ethanol (Example 2); format: in vivo, Sprague Dawley strain male rats; details: UDP-2Na 100 mg/kg p.o. 30 min before ethanol 6 g/kg
Method: The Sprague Dawley strain male rats weighing 260±30 g which had been fed rat food commercially available as CLEA CE-2 and prevented from eating food for 12 hours just before the experiment were divided into groups each of 10 - 13 members each. Each rat was orally administered disodium uridine-5'-diphosphate (UDP-2Na) in the form of a suspension in corn oil in an amount 100 mg/kg body weight. Thirty minutes after the administration, ethanol as a 50% aqueous solution was orally administered in a dose of 6 g/kg. body weight and then behavior of the rat was observed over 24 hours.

[2] = tested on: rat (behaviour after ethanol); experiment: Behaviour and righting reflex of rats, UDP-2Na given 30 min after ethanol (Example 3); format: in vivo, Sprague Dawley strain male rats; details: UDP-2Na 100 mg/kg p.o. 30 min after ethanol 6 g/kg
Method: The Sprague Dawley strain male rats weighing 160±30 g which were fed rat food commercially available as CLEA CE-2 and prevented from eating food for 12 hours just before the experiment was started. Each rat was administered with ethanol as a 50% aqueous solution in a dose of 6 g/kg body weight. Thirty minutes after the administration, the rat was orally administered with a suspension of disodium uridine-5'-diphosphate (UDP-2Na) in corn oil in a dose of 100 mg/kg. body weight based on UDP-2Na. The behavior of the rat was observed over 24 hours after the last administration.

[3] = Measurement of alcohol level in blood (alcoholic dehydrogenase method); format: in vivo, Sprague Dawley strain female rats
Method: Measurement of Alcohol Level in Blood
(§1) In this Example, Sprague Dawley strain female rats (weighing 150±20 g) divided into groups of 9 - 12 members each were used.
(§2) After abstention from food overnight each rat was orally administered disodium uridine-5'-diphosphate (UDP-2Na) in the form of a physiological saline solution in a dose of 100 mg/kg. body weight as an effective ingredient and, 30 minutes after the administration, the rat was administered with ethanol in a dose of 6 g/kg body weight. Four hours and thirty minutes after the administration of ethanol, the rat was etherized, and blood was sampled from its heart to determine alcohol level in the blood by a alcoholic dehydrogenase method. For control, a physiological saline solution was used instead of the UDP-2Na solution.

[4] = tested on: rat (behavior after ethanol); experiment: Behavior of rats in the blood alcohol experiment (Example 4); format: in vivo, Sprague Dawley strain female rats; details: UDP-2Na 100 mg/kg p.o. 30 min before ethanol 6 g/kg; ditto mark (") = normal walking
Method: as §1, §2

For O=c1ccn([C@@H]2O[C@H](COP(=O)([O-])OP(=O)([O-])O)[C@@H](O)[C@H]2O)c(=O)[nH]1.[Na+].[Na+] [UDP . 2Na, disodium uridine-5'-diphosphate], the “% inhibition (neutral lipid accumulation in liver)” value (Neutral Lipid in Liver; UDP-2Na 100 mg/kg p.o. 30 min before ethanol 6 g/kg p.o., 24 h) was 95.7%, the “Neutral Lipid in Liver” value (Neutral Lipid in Liver; UDP-2Na 100 mg/kg p.o. in corn oil 30 min before ethanol 6 g/kg p.o., liver taken 24 h after) was 12.69 ± 7.85 mg/g and the “Behaviour: Deep Sleep” value ([1]; 3 hrs after alcohol) was 1 heads. The “Behaviour: Lying Flat” value ([1]; 3 hrs after alcohol) was 5 heads, the “Behaviour: Normal Walking” value ([1]; 3 hrs after alcohol) was 7 heads and the “Righting Reflex +” value ([1]; 3 hrs after alcohol) was 12 heads. The “Righting Reflex -” value ([1]; 3 hrs after alcohol) was 1 heads, the “Behaviour: Deep Sleep” value ([1]; 6 hrs after alcohol) was 1 heads and the “Behaviour: Lying Flat” value ([1]; 6 hrs after alcohol) was 8 heads. For the same compound, the “Behaviour: Normal Walking” value ([1]; 6 hrs after alcohol) was 4 heads, the “Righting Reflex +” value ([1]; 6 hrs after alcohol) was 12 heads and the “Righting Reflex -” value ([1]; 6 hrs after alcohol) was 1 heads. For the same compound, the “Behaviour: Deep Sleep” value ([1]; 9 hrs after alcohol) was 0 heads, the “Behaviour: Lying Flat” value ([1]; 9 hrs after alcohol) was 7 heads and the “Behaviour: Normal Walking” value ([1]; 9 hrs after alcohol) was 6 heads. The “Righting Reflex +” value ([1]; 9 hrs after alcohol) was 13 heads, the “Righting Reflex -” value ([1]; 9 hrs after alcohol) was 0 heads and the “Behaviour: Deep Sleep” value ([1]; 12 hrs after alcohol) was 0 heads. For the same compound, the “Behaviour: Lying Flat” value ([1]; 12 hrs after alcohol) was 0 heads, the “Behaviour: Normal Walking” value ([1]; 12 hrs after alcohol) was 13 heads and the “Righting Reflex +” value ([1]; 12 hrs after alcohol) was 13 heads. The “Righting Reflex -” value ([1]; 12 hrs after alcohol) was 0 heads, the “Behaviour: Deep Sleep” value ([1]; 18 hrs after alcohol) was 0 heads and the “Behaviour: Lying Flat” value ([1]; 18 hrs after alcohol) was 0 heads. The “Behaviour: Normal Walking” value ([1]; 18 hrs after alcohol) was 13 heads, the “Righting Reflex +” value ([1]; 18 hrs after alcohol) was 13 heads and the “Righting Reflex -” value ([1]; 18 hrs after alcohol) was 0 heads. The “Behaviour: Deep Sleep” value ([2]; 3 hrs after alcohol) was 1 heads, the “Behaviour: Lying Flat” value ([2]; 3 hrs after alcohol) was 6 heads and the “Behaviour: Normal Walking” value ([2]; 3 hrs after alcohol) was 4 heads. The “Righting Reflex +” value ([2]; 3 hrs after alcohol) was 10 heads, the “Righting Reflex -” value ([2]; 3 hrs after alcohol) was 1 heads and the “Behaviour: Deep Sleep” value ([2]; 6 hrs after alcohol) was 1 heads. The “Behaviour: Lying Flat” value ([2]; 6 hrs after alcohol) was 7 heads, the “Behaviour: Normal Walking” value ([2]; 6 hrs after alcohol) was 3 heads and the “Righting Reflex +” value ([2]; 6 hrs after alcohol) was 9 heads. For the same compound, the “Righting Reflex -” value ([2]; 6 hrs after alcohol) was 2 heads, the “Behaviour: Deep Sleep” value ([2]; 9 hrs after alcohol) was 1 heads and the “Behaviour: Lying Flat” value ([2]; 9 hrs after alcohol) was 6 heads. For the same compound, the “Behaviour: Normal Walking” value ([2]; 9 hrs after alcohol) was 4 heads, the “Righting Reflex +” value ([2]; 9 hrs after alcohol) was 10 heads and the “Righting Reflex -” value ([2]; 9 hrs after alcohol) was 1 heads. The “Behaviour: Deep Sleep” value ([2]; 12 hrs after alcohol) was 0 heads, the “Behaviour: Lying Flat” value ([2]; 12 hrs after alcohol) was 1 heads and the “Behaviour: Normal Walking” value ([2]; 12 hrs after alcohol) was 10 heads. For the same compound, the “Righting Reflex +” value ([2]; 12 hrs after alcohol) was 11 heads, the “Righting Reflex -” value ([2]; 12 hrs after alcohol) was 0 heads and the “Behaviour: Deep Sleep” value ([2]; 18 hrs after alcohol) was 0 heads. The “Behaviour: Lying Flat” value ([2]; 18 hrs after alcohol) was 0 heads, the “Behaviour: Normal Walking” value ([2]; 18 hrs after alcohol) was 11 heads and the “Righting Reflex +” value ([2]; 18 hrs after alcohol) was 11 heads. For the same compound, the “Righting Reflex -” value ([2]; 18 hrs after alcohol) was 0 heads, the “Ethanol level in Blood, Average” value ([3]; UDP-2Na 100 mg/kg p.o. in saline 30 min before ethanol 6 g/kg, 4 h 30 min after ethanol, *Confidence Limits: 98%) was 1.51 ± 1.09 mg/mL and the “Ethanol level in Blood (individual test animals No. 1-12)” value ([3]; UDP-2Na 100 mg/kg p.o. in saline 30 min before ethanol 6 g/kg, blood 4 h 30 min after ethanol) was 2.11 mg/mL and 1.77 mg/mL and 0.57 mg/mL and 0.24 mg/mL and 0.75 mg/mL and 2.10 mg/mL and 1.08 mg/mL and 1.35 mg/mL and 1.72 mg/mL and 1.50 mg/mL and 2.16 mg/mL and 2.74 mg/mL. For the same compound, the “alcohol level in blood in comparison with the control” value ([3]; UDP-2Na 100 mg/kg p.o., result in words) was “significantly lowered” and the “Behavior (individual test animals No. 1-12)” value [4] was “normal walking; also recorded: lying flat; also recorded: deep sleep”.
